Here are results for two compounds from PMC10374969, “SVCT2/SLC23A2 is a sodium-dependent urate transporter: functional properties and practical application” (The Journal of Biological Chemistry, 2023).

Holding throughout (assay type): cell-based
For experiment [1], the target named is T1, human SVCT2 (SVCT2/SLC23A2) (Homo sapiens, UniProt Q9UGH3).
T1 construct: full-length wild type, 650 aa, C-terminal EGFP tag (pEGFP-N1), transiently expressed in HEK293 cells
The experiment in a line: inhibition of [[…]-14C]-urate uptake into transfected HEK293 cells, mock subtracted.

Experiment [2] addresses T2, mouse Svct2 (Svct2/Slc23a2) (Mus musculus, UniProt Q9EPR4).
T2 construct: full-length, 648 aa, C-terminal EGFP tag (pEGFP-N1), transiently expressed in HEK293 cells
The description is as above.

Experiment [3] concerns the target T1, human SVCT2 (SVCT2/SLC23A2). As to the kind of experiment: inhibition of [[…]-14C]-ascorbate uptake into transfected HEK293 cells.

The structures appear in SMILES notation.

T1 sequence (Q9UGH3 whole entry): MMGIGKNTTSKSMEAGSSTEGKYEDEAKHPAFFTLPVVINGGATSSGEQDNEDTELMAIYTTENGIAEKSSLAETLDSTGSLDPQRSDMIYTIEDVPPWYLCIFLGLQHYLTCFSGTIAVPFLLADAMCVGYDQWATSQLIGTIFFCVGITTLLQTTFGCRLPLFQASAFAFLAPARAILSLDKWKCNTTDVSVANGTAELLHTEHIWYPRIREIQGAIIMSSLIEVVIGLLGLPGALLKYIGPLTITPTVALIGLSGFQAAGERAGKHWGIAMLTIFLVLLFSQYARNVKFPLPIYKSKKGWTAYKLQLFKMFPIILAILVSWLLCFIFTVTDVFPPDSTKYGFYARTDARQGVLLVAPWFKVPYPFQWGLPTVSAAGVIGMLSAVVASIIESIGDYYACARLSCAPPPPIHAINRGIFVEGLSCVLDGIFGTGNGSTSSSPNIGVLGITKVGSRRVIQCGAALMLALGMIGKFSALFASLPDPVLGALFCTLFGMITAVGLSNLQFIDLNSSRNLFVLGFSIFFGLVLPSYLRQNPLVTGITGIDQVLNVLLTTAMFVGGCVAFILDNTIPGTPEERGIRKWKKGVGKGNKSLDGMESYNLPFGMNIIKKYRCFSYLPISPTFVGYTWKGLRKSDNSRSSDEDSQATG
T2 sequence (Q9EPR4 whole entry): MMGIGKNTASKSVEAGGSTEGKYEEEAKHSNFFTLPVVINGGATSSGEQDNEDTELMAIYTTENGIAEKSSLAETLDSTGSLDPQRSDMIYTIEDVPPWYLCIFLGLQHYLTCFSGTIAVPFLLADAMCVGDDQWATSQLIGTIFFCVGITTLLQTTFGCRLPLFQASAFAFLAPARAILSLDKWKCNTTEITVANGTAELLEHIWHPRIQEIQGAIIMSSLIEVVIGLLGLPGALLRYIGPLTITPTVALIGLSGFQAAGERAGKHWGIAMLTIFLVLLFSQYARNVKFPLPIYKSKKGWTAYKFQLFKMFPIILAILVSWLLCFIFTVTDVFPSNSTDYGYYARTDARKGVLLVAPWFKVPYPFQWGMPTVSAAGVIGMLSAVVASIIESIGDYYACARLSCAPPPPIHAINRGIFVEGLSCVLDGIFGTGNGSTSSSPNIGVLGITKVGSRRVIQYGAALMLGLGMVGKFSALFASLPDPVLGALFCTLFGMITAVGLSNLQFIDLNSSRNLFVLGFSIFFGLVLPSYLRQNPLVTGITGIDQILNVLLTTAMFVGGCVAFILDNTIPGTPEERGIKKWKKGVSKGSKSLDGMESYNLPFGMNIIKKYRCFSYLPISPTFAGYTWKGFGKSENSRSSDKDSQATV

A word on the IC50: it is the midpoint of a concentration-inhibition curve. Lower therefore signals greater potency. `O=C1O[C@H]([C@@H](O)CO)C(O)=C1O` [ascorbate]: the IC50 in experiment [1] came to 36.6 µM; in experiment [2] it was 30.3 µM.
The inhibition is how much of the control response was suppressed. In turn, `O=c1[nH]c(=O)c2[nH]c(=O)[nH]c2[nH]1` [urate] had an inhibition at 500 µM in experiment [3] of approximately 20%.
